Measured values as given in patent publication US7534576B2, “Method and a device for the evaluation of biopolymer fitness” (Olympus Corporation, priority 1993, dated 2009).
{Bodipy-C6} = Bodipy fluorophore attached via a 5'-C6 linker

Columns and labels:
[1] = system: viral single-strand DNA of bacteriophage M13 (M13mp18 (+) DNA); assay: FCS of association of Bodipy-labeled primer with M13 single-strand DNA in solution; assay type: binding; conditions: 40° C.
Procedure: The oligonucleotide is labeled with Bodipy (Molecular Probes) at the 5′-C6 position. The course of the association reaction with time was measured according to the invention in solution at 40° C. The solution contained 50 nM oligonucleotide, 50 nM of M13mp18 (+) DNA in […] tris buffer, pH 7.5, and 0.18 M sodium chloride. […] Autocorrelation was determined after 0, 0.5, 1, 2, 4, 8, 16, 32, 64, 128, 192, and 256 minutes. The diffusion time of the free primer is 0.17 ms, and 2.9 ms when complex-bound. […] A reassocation rate of 0.07 min^−1 results.

EGF receptor = molecular target: T1, EGF receptor (Rattus norvegicus, UniProt G3V6K6); assay: FCS of tetramethylrhodamine-labeled EGF associating with cell-bound EGF receptor at the outer cell membrane; assay type: binding
T1 construct: endogenous in cells; host or cells: NBD2 rat bladder cells (tumor-derived)
Description: (§1) FIGS. 26 to 28 show the use of the FCS method according to the invention • (i) for the determination of the behavior of a fluorescence labeled ligand with respect to association with a receptor of the outer cell membrane, • (ii) for distinguishing between bound and free ligand, and/or • (iii) for measuring ligand mobility in the case of a passage into the cytosol.
The cells are surface-fixed on Petri dishes in PBS buffer (phosphate buffered saline). […] For excitation, laser light of 500 nm wavelength of an argon laser (0.5 mW) had been chosen. […] Its concentration was 6 nM.

NBD2 rat bladder cells = assay: FCS of internalized EGF mobility with the measuring volume in the cytosol; assay type: cell-based; conditions: FIG. 27
Description: as §1
The cells are surface-fixed on Petri dishes in PBS buffer (phosphate buffered saline). They had been grown beforehand in standard medium until a confluent monolayer had been reached. The medium contained EGF labeled with tetramethylrhodamine. For excitation, laser light of 500 nm wavelength of an argon laser (0.5 mW) had been chosen. […] Its concentration was 6 nM.

Substance	reassocation rate ([1]; 50 nM oligonucleotide, 50 nM M13mp18 (+) DNA, FIG. 29) [min⁻¹]	diffusion time of the free primer ([1]; 10 nM tris buffer pH 7.5, 0.18 M sodium chloride) [ms]	diffusion time of primer when complex-bound ([1]; bound to M13 DNA) [ms]	EGF receptors per measuring volume still retaining the ligand bound with high affinity (EGF receptor; after 30 minutes of washing, FIG. 26c)	τDfree of free EGF factor (printed as rotational diffusion coefficient) (EGF receptor; free EGF, 6 nM, PBS, FIG. 26a) [ms]	diffusion time τDcomplex of receptor bound complex (EGF receptor; receptor bound in cell membrane, FIG. 26b) [ms]	internalized EGF with the same mobility as the free factor (NBD2 rat bladder cells; cytosol) [%]	internalized EGF hindered in mobility (NBD2 rat bladder cells; measuring volume within the cytosol) [%]
5′-TGACCGGCAGCAAAATGT-3′ (DNA, 5' {Bodipy-C6}, backbone not given here) [M13/pUC (−21) primer, DNA oligonucleotide primer complementary to bacteriophage M13 single-strand DNA]	0.07	0.17	2.9					
human epidermal growth factor (EGF)				about 0.5	0.145	14.54	62	38
